Earlier results in patent publication US20090012066A1, “Method of Use of Deacetylase Inhibitors” (Novartis AG, priority 2005, published 2009).

Assays:
[1] = tested on: cardiac hypertrophy in transgenic mice that over-express Hop; settings: transgenic mice over-expressing Hop; Kook et al. 2003
[2] = tested on: hypertrophy induced by infusion of isoproterenol

Compound: CC(/C=C/C(=O)NO)=C\[C@@H](C)C(=O)c1ccc(N(C)C)cc1 [trichostatin A]
- effect on cardiac hypertrophy [1]: prevents cardiac hypertrophy
- effect on hypertrophy induced by infusion of isoproterenol [2]: attenuates hypertrophy
